Source: patent US20090176811A1, “Substituted 5,6,7,8-Tetrahydro-pyrido[4,3-d]pyrimidine-2-yl Compounds and 5,6,7,8-Tetrahydro-quinazoline-2-yl Compounds” (GRUENENTHAL GmbH, priority 2004, published 2009)

Legend:
5-HT transporter = target: T1, 5-HT transporter (Rattus norvegicus, UniProt P31652); assay: 5-HT uptake inhibition in rat brain synaptosomes (medulla and pons); format: biochemical
T1 construct: from tissue; host or cells: rat medulla and pons synaptosomes (P2 fraction)
Text: (§1) I. Method for Determining Noradrenalin and 5-HT Uptake Inhibition:
(§2) Synaptosomes from rat brain regions are freshly isolated for in vitro studies, as described in the publication “The isolation of nerve endings from brain” by E. G. Gray and V. P. Whittaker, J. Anatomy 96, pages 79-88, 1962. The corresponding literature description is hereby introduced as a reference and is deemed to be part of the disclosure.
(§3) The tissue (hypothalamus for the determination of noradrenalin uptake inhibition and medulla and pons for the determination of 5-HT uptake inhibition) is homogenised in ice-cooled 0.32 M sucrose (100 mg of tissue/1 mL) in a glass homogeniser with Teflon pestle using five complete up and down strokes at 840 revolutions/minute.
(§4) The homogenate is centrifuged at 4° C. for 10 minutes at 1000 g. After subsequent centrifugation at 17000 g for 55 minutes, the synaptosomes (P2 fraction) are obtained, which are resuspended in 0.32 M […] (0.5 mL/100 mg of original weight).
(§5) The particular uptake is measured in a 96-well microtitre plate. The volume is 250 μl and the incubation proceeds at room temperature (approx. 20-25° C.) under an O2 atmosphere.
(§6) The incubation time is 7.5 minutes for [^3H]-NA and 5 minutes for [^3H]-5-HT.
(§7) The 96 samples are then filtered through a Unifilter GF/B microtitre plate (Packard) and washed with 200 mL of incubated buffer using a “Brabdel MPXRI-96T Cell-Harvester”. The Unifilter GF/B plate is dried for 1 hour at 55° C. The plate is then sealed with a Back seal (Packard) and 35 μl of scintillation fluid are added per well (Ultima Gold, Packard). After sealing with a top seal (Packard) and establishing an equilibrium (around 5 hours), radioactivity is determined in a “Trilux 1450 Microbeta” (Wallac).
(§8) The quantity of protein used in the above determination corresponds to the values known from the literature, as for example described in “Protein measurement with the folin phenol reagent”, Lowry et al., J. Biol. Chem., 193, 265-275, 1951.
(§9) A detailed description of the method may additionally be found in the literature, for example in M. Ch. Frink, H.-H. Hennies, W. Engelberger, M. Haurand and B. Wilffert (1996) Arzneim.-Forsch./Drug Res. 46 (III), 11, 1029-1036.
(§10) The corresponding literature descriptions are hereby introduced in each case as a reference and are deemed to be part of the present disclosure.
(§11) The following characteristics were determined for the NA or 5-HT transporter: […]

NA transporter = target: T2, NA transporter (Rattus norvegicus, UniProt Q63380); assay: Noradrenalin uptake inhibition in rat brain synaptosomes (hypothalamus); format: biochemical
T2 construct: from tissue; host or cells: rat hypothalamus synaptosomes (P2 fraction)
Text: as §1, §2, §3, §4, §5, §6, §7, §8, §9, §10, §11

T2 sequence (Q63380 1-617): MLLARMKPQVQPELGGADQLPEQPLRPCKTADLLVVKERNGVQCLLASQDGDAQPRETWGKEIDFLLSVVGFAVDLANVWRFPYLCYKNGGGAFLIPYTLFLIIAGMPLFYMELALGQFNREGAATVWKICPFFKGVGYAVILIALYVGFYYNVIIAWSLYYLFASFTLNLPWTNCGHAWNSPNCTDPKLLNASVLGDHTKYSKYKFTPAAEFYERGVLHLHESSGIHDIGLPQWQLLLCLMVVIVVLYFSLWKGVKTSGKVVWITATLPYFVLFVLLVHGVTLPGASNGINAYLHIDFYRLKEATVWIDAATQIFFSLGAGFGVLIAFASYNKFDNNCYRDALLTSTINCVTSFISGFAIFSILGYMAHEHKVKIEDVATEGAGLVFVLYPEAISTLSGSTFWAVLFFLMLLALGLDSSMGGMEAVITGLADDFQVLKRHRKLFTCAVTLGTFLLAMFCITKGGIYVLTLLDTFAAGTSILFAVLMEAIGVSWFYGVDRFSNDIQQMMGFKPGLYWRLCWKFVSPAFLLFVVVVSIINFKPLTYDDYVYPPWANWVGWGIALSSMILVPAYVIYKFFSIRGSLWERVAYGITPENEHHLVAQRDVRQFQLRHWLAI
T1 sequence (P31652 whole entry): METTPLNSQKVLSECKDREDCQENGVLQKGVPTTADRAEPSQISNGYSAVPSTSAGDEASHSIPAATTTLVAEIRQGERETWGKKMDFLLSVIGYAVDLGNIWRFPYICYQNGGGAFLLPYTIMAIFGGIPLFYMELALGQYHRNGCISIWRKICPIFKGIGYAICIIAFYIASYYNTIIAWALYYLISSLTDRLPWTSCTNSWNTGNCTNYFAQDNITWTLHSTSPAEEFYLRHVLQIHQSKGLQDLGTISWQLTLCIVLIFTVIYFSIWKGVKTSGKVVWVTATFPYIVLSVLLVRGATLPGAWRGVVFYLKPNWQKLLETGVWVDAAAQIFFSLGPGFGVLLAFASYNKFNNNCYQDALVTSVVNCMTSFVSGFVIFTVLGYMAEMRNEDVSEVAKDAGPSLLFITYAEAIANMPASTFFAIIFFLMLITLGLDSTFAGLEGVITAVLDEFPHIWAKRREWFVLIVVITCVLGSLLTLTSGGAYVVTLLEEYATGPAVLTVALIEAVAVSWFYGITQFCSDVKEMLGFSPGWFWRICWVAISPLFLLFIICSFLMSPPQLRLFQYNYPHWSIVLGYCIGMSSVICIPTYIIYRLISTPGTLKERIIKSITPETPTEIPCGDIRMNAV

CCc1ccc(C(=O)Nc2ncc3c(n2)CCN(S(=O)(=O)c2ccc4c(c2)CN(C(=O)C(F)(F)F)CC4)C3)cc1 [Example 157, 4-ethyl-N-{6-[2-(2,2,2-trifluoro-acetyl)-1,2,3,4-tetrahydro-isoquinoline-7-sulfonyl]-5,6,7,8-tetrahydro-pyrido[4,3-d]pyrimidin-2-yl}-benzamide] gave an inhibition at 1 µM (5-HT transporter) of 43% and an inhibition at 10 µM (NA transporter) of 61%.
For O=C(Nc1ncc2c(n1)CCN(C(=O)c1sc3ccccc3c1Cl)C2)c1ccccc1 [Example 120, N-[6-(3-chloro-benzo[b]thiophene-2-carbonyl)-5,6,7,8-tetrahydro-pyrido[4,3-d]pyrimidin-2-yl]-benzamide], the inhibition at 1 µM (5-HT transporter) was 92% and the inhibition at 10 µM (NA transporter) was 78%.
Cc1cccc(C(=O)Nc2ncc3c(n2)CCN(S(=O)(=O)c2cccc(C)c2)C3)c1 [Example 116, 3-methyl-N-[6-(toluene-3-sulfonyl)-5,6,7,8-tetrahydro-pyrido[4,3-d]pyrimidin-2-yl]-benzamide] showed an inhibition at 1 µM (5-HT transporter) of 31% and an inhibition at 10 µM (NA transporter) of 52%.
In the case of CCc1ccc(C(=O)Nc2ncc3c(n2)CCN(C(=O)c2ccc(-n4cccn4)cc2)C3)cc1 [Example 74, 4-ethyl-N-[6-(4-pyrazol-1-yl-benzoyl)-5,6,7,8-tetrahydro-pyrido[4,3-d]pyrimidin-2-yl]-benzamide], the inhibition at 1 µM (5-HT transporter) is reported as 54% and the inhibition at 10 µM (NA transporter) is reported as 43%.
In the case of O=C(Nc1ncc2c(n1)CCN(C(=O)c1ccc(OC(F)(F)F)cc1)C2)c1cc(Cl)cc(Cl)c1 [Example 192, 3,5-dichloro-N-[6-(4-trifluoromethoxy-benzoyl)-5,6,7,8-tetrahydro-pyrido[4,3-d]pyrimidin-2-yl]-benzamide], the inhibition at 1 µM (5-HT transporter) is reported as 47% and the inhibition at 10 µM (NA transporter) is reported as 73%.
O=C(Nc1ncc2c(n1)CCN(C(=O)CCCCc1ccccc1)C2)c1ccccc1 [Example 190, N-[6-(5-phenyl-pentanoyl)-5,6,7,8-tetrahydro-pyrido[4,3-d]pyrimidin-2-yl]-benzamide] gave an inhibition at 1 µM (5-HT transporter) of 36% and an inhibition at 10 µM (NA transporter) of 73%.
Work on O=C(Nc1ncc2c(n1)CCN(C(=O)C1CCc3ccccc3C1)C2)c1cccc(F)c1 (stereo not shown) [Example 141, 3-fluoro-N-[6-(1,2,3,4-tetrahydro-naphthalene-2-carbonyl)-5,6,7,8-tetrahydro-pyrido[4,3-d]pyrimidin-2-yl]-benzamide] yielded an inhibition at 1 µM (5-HT transporter) of 54% and an inhibition at 10 µM (NA transporter) of 55%.
With O=C(Nc1ncc2c(n1)CCN(C(=O)c1c(F)cccc1Cl)C2)c1cccc(Cl)c1 [Example 127, 3-chloro-N-[6-(2-chloro-6-fluoro-benzoyl)-5,6,7,8-tetrahydro-pyrido[4,3-d]pyrimidin-2-yl]-benzamide] the inhibition at 1 µM (5-HT transporter) was 35% and the inhibition at 10 µM (NA transporter) was 71%.
O=C(Nc1ncc2c(n1)CCN(S(=O)(=O)c1ccc(Cl)cc1)C2)c1ccc(Cl)c(Cl)c1 [Example 71, 3,4-dichloro-N-[6-(4-chloro-benzenesulfonyl)-5,6,7,8-tetrahydro-pyrido[4,3-d]pyrimidin-2-yl]-benzamide] showed an inhibition at 1 µM (5-HT transporter) of 47% and an inhibition at 10 µM (NA transporter) of 74%.
CC(C)(C)c1ccc(C(=O)Nc2ncc3c(n2)CCN(S(=O)(=O)c2ccc4c(c2)OCCO4)C3)cc1 [Example 186, 4-tert-butyl-N-[6-(2,3-dihydro-benzo[1,4]dioxin-6-sulfonyl)-5,6,7,8-tetrahydro-pyrido[4,3-d]pyrimidin-2-yl]-benzamide] gave an inhibition at 1 µM (5-HT transporter) of 46% and an inhibition at 10 µM (NA transporter) of 82%.
Compound CCc1ccc(C(=O)Nc2ncc3c(n2)CCN(S(=O)(=O)c2ccccc2Cl)C3)cc1 [Example 114, N-[6-(2-chloro-benzenesulfonyl)-5,6,7,8-tetrahydro-pyrido[4,3-d]pyrimidin-2-yl]-4-ethyl-benzamide] has an inhibition at 1 µM (5-HT transporter) of 50% and an inhibition at 10 µM (NA transporter) of 73%.
CCc1ccc(C(=O)Nc2ncc3c(n2)CCN(S(=O)(=O)c2ccsc2)C3)cc1 [Example 121, 4-ethyl-N-[6-(thiophene-3-sulfonyl)-5,6,7,8-tetrahydro-pyrido[4,3-d]pyrimidin-2-yl]-benzamide] gave an inhibition at 1 µM (5-HT transporter) of 52% and an inhibition at 10 µM (NA transporter) of 92%.
For Cc1cc(C)c(S(=O)(=O)N2CCc3nc(NC(=O)c4ccc(Cl)c(Cl)c4)ncc3C2)c(C)c1 [Example 95, 3,4-dichloro-N-[6-(2,4,6-trimethyl-benzenesulfonyl)-5,6,7,8-tetrahydro-pyrido[4,3-d]pyrimidin-2-yl]-benzamide], the inhibition at 1 µM (5-HT transporter) was 59% and the inhibition at 10 µM (NA transporter) was 72%.
Compound COc1ccccc1C(=O)Nc1ncc2c(n1)CCN(S(=O)(=O)c1c(C)cc(OC)c(C)c1C)C2 [Example 158, 2-methoxy-N-[6-(4-methoxy-2,3,6-trimethyl-benzenesulfonyl)-5,6,7,8-tetrahydro-pyrido[4,3-d]pyrimidin-2-yl]-benzamide] has an inhibition at 1 µM (5-HT transporter) of 55% and an inhibition at 10 µM (NA transporter) of 36%.
O=C(Nc1ncc2c(n1)CCN(C(=O)c1ccc3ccccc3c1)C2)c1ccc(Cl)cc1 [Example 69] was tested, and the “5-HT uptake, rat, 1 μM, % inhibition” value (5-HT transporter) was 70% and the “NA uptake, rat, 10 μM, % inhibition” value (NA transporter) was 73%.
Compound CC(C)(C)c1ccc(C(=O)Nc2ncc3c(n2)CCN(C(=O)c2csc4ccccc24)C3)cc1 [Example 184, N-[6-(benzo[b]thiophene-3-carbonyl)-5,6,7,8-tetrahydro-pyrido[4,3-d]pyrimidin-2-yl]-4-tert-butyl-benzamide] has an inhibition at 1 µM (5-HT transporter) of 48% and an inhibition at 10 µM (NA transporter) of 69%.
In the case of O=C(Nc1ncc2c(n1)CCN(S(=O)(=O)c1cccs1)C2)c1ccc(F)c(F)c1 [Example 72, 3,4-difluoro-N-[6-(thiophene-2-sulfonyl)-5,6,7,8-tetrahydro-pyrido[4,3-d]pyrimidin-2-yl]-benzamide], the inhibition at 10 µM (NA transporter) is reported as 41%.
CCOC(=O)CC(=O)N1CCc2nc(NC(=O)c3cccc(Cl)c3)ncc2C1 [Example 124, 3-[2-(3-chloro-benzoylamino)-7,8-dihydro-5H-pyrido[4,3-d]pyrimidin-6-yl]-3-oxo-propionic acid ethyl ester] showed an inhibition at 10 µM (NA transporter) of 65%.
With O=C(Nc1ncc2c(n1)CCN(C(=O)c1cccc(F)c1)C2)c1cccc2ccccc12 [Example 183, naphthalene-1-carboxylic acid [6-(3-fluoro-benzoyl)-5,6,7,8-tetrahydro-pyrido[4,3-d]pyrimidin-2-yl]-amide] the inhibition at 10 µM (NA transporter) was 63%.
With COc1ccccc1C(=O)Nc1ncc2c(n1)CCN(S(=O)(=O)c1ccc(Cl)s1)C2 [Example 86, N-[6-(5-chloro-thiophene-2-sulfonyl)-5,6,7,8-tetrahydro-pyrido[4,3-d]pyrimidin-2-yl]-2-methoxy-benzamide] the inhibition at 10 µM (NA transporter) was 32%.
For COc1cccc(C(=O)Nc2ncc3c(n2)CCN(C(=O)c2cccc(F)c2F)C3)c1 [Example 80, N-[6-(2,3-difluoro-benzoyl)-5,6,7,8-tetrahydro-pyrido[4,3-d]pyrimidin-2-yl]-3-methoxy-benzamide], the inhibition at 10 µM (NA transporter) was 54%.
Work on CC(C(=O)N1CCc2nc(NC(=O)c3ccccc3)ncc2C1)c1ccc(Cl)cc1 (stereo not shown) [Example 176, N-{6-[2-(4-chloro-phenyl)-propionyl]-5,6,7,8-tetrahydro-pyrido[4,3-d]pyrimidin-2-yl}-benzamide] yielded an inhibition at 10 µM (NA transporter) of 38%.
COc1ccccc1C(=O)Nc1ncc2c(n1)CCN(C(=O)COCc1ccccc1)C2 [Example 195, N-[6-(2-benzyloxy-acetyl)-5,6,7,8-tetrahydro-pyrido[4,3-d]pyrimidin-2-yl]-2-methoxy-benzamide] gave an inhibition at 10 µM (NA transporter) of 31%.
Work on COc1cccc(C(=O)Nc2ncc3c(n2)CCN(C(=O)c2cccc(OC(F)(F)F)c2)C3)c1 [Example 199, 3-methoxy-N-[6-(3-trifluoromethoxy-benzoyl)-5,6,7,8-tetrahydro-pyrido[4,3-d]pyrimidin-2-yl]-benzamide] yielded an inhibition at 10 µM (NA transporter) of 52%.
